US20050049220A1, “Dosing regimen for Flaviviridae therapy” (priority 2003, published 2005)
Counter-ions that a name gives are not always drawn. Like-named read-outs stand apart in the source and are kept apart here.

Key:
[1] = system: HCV replicon; experiment: HCV replicon assay: HCV RNA by Q-RT-PCR, 4 days exposure; format: cell-based, hepatitis C virus (HCV); conditions: for log reduction at 10 µM: read-out: Corrected HCV RNA log10 reduction at 10 μM; for EC90: read-out: Corrected HCV RNA EC90
Description: Antiviral screening assays can be done in the same media without G418 as follows: in order to keep cells in logarithmic growth phase, seed cells in a 96-well plate at low density, for example 1000 cells per well. Add the test compound immediate after seeding the cells and incubate for a period of 3 to 7 days at 37° C. in an incubator. Media is then removed, and the cells are prepared for total nucleic acid extraction (including replicon RNA and host RNA). Replicon RNA can then be amplified in a Q-RT-PCR protocol, and quantified accordingly. […] This value is called DeltaCt (ΔCt or DCt).
This value is called DeltaCt (ΔCt or dCt).

[2] = system: Huh-7 cells; experiment: Cellular rRNA levels / cytotoxicity in HCV replicon cells; conditions: 100 μM; 4 days; HCV replicon transfected Huh-7 cells
Description: In a typical setting, a compound might reduce both the host RNA polymerase activity and the replicon-encoded polymerase activity. Therefore, quantification of rRNA (or any other host RNA polymerase I product) or beta-actin mRNA (or any other host RNA polymerase II) and comparison with RNA levels of the no-drug control is a relative measurement of the effect of the test compound on host RNA polymerases.
With the availability of both the HCV ΔCt data and the rRNA ΔCt, a specificity parameter can be introduced. This parameter is obtained by subtracting both ΔCt values from each other.
IFN-α-2a and ribavirin were tested over a range of concentrations for their ability to reduce the HCV RNA levels in exponentially growing replicon cells after 4 days of exposure as described (Stuyver, L. et al. “A ribonucleoside analogue that blocks the replication of bovine viral diarrhea and hepatitis C viruses in culture” Antimicrob. Agents Chemother. 2003, 47, 244-254).
Gemcitabine was dissolved in DMSO and added to the culture media of a cellular model system of Huh7 cells harboring self-replicating HCV RNA, at final concentrations ranging from […]. In such experiments, one way to express the antiviral effectiveness of a compound is to subtract the threshold reverse-transcriptase polymerase chain reactions (RT-PCR) cycle of the test compound with the average threshold RT-PCR cycle of the negative control. This value is called DeltaCt (ΔCt or dCt). With the availability of both the HCV ΔCt data and the rRNA ΔCt, a specificity parameter can be introduced. This parameter is obtained by subtracting both ΔCt values from each other.

[3] = system: HCV; experiment: Single treatment of an HCV-infected patient, viral load; format: in vivo, human; conditions: patient with multifocal HCC, cirrhosis, ischaemic hepatitis; HCl
Description: The tolerance was acceptable, and thus the next day the patient was given a second dosage of approximately 700 mg of gemcitabine. Before the second dosage the baseline viral load was 6.49 log copies/mL.

[4] = Hepatitis C virus, 96 h, read-out: Corrected HCV RNA log10 reduction at 100 μM
[5] = Hepatitis C virus, 96 h, 10 μM, corrected for rRNA
[6] = Hepatitis C virus, 96 h, 100 μM, 4 days, HCV replicon transfected Huh-7 cells, read-out: log10 RNA reduction at 100 μM, HCV
[7] = Hepatitis C virus, 96 h incubation
[8] = Hepatitis C virus, 96 h, 100 μM, corrected for rRNA, read-out: Corrected HCV RNA log10 reduction at 100 μM

| Compound | log reduction at 100 µM [1, 4] | log reduction at 10 µM [1, 5] | log reduction at 100 µM [1, 6] | EC90 [1, 7] | log10 RNA reduction at 100 μM, rRNA [2] | log reduction at 100 µM [1, 8] | log reduction at 10 µM ([1]; Hepatitis C virus, 96 h) | further results |
| --- | --- | --- | --- | --- | --- | --- | --- | --- |
| NC(=O)NO [Hydroxyurea] | -0.08 ± 0.16 | 0.06 ± 0.04 | 0.17 ± 0.08 | > 100 µM | 0.25 ± 0.20 log10 | – | – | – |
| Nc1ccn([C@@H]2O[C@H](CO)[C@@H](O)C2(F)F)c(=O)n1 [gemcitabine HCl] | – | – | – | – | – | – | – | tolerance / adverse events [3]: acceptable |
| CC(=O)N(O)CCCCCNC(=O)CCC(=O)N(O)CCCCCNC(=O)CCC(=O)N(O)CCCCCN [Deferoxamine] | – | – | – | > 100 µM | 0.92 ± 0.08 log10 | 0.08 ± 0.03 | – | Corrected HCV RNA log10 reduction at 10 μM ([1]; 10 μM, corrected for rRNA): 0.17 ± 0.11 log10 |
| COc1c(C)c2c(c(O)c1C/C=C(\C)CCC(=O)O)C(=O)OC2 [Mycophenolic acid] | 0.07 ± 0.47 | – | 1.15 ± 0.43 | > 100 µM | 1.09 ± 0.28 log10 | – | 0.22 ± 0.01 | – |
| O=C(O)C[C@H](NC(=O)CP(=O)(O)O)C(=O)O [PALA, N-(Phosphonoacetyl)-L-aspartate] | 1.3 ± 0.05 | – | 1.77 ± 0.02 | – | 0.48 ± 0.02 log10 | – | 1.18 ± 0.11 | EC90 ([1]; Hepatitis C virus, 96 h): 7.6 µM |
| Nc1ccn([C@@H]2C=C(CO)[C@@H](O)[C@H]2O)c(=O)n1 [CPE-C, cyclopentenylcytosine] | – | 1.43 ± 0.01 | 2.47 ± 0.33 | – | 1.21 ± 0.16 log10 | 1.26 ± 0.51 | – | EC90 ([1]; 96 h incubation): 2.5 µM |
| O=c1cnn([C@@H]2O[C@H](CO)[C@@H](O)[C@H]2O)c(=O)[nH]1 [6-azauridine] | – | 0.12 ± 0.05 | 0.25 ± 0.09 | > 100 µM | 0.61 ± 0.18 log10 | -0.36 ± 0.16 | – | – |
| O=C1C(O)=C(CC=C(Cl)Cl)C(=O)c2ccccc21 [Dichloroallyl lawsone (NSC-126771), Dichloroallyl lawsone] | – | – | – | – | 2.13 ± 0.15 log10 | – | – | Corrected HCV RNA log10 reduction at 10 μM ([1]; 10 μM, corrected for rRNA): −0.52 ± 0.01 log10; log10 RNA reduction at 100 μM, HCV ([1]; 100 μM, 4 days, HCV replicon transfected Huh-7 cells): 1.27 ± 0.02 log10; Corrected HCV RNA log10 reduction at 100 μM ([1]; 100 μM, corrected for rRNA): −0.86 ± 0.17 log10; EC90 ([1]; 96 h incubation): > 100 µM |
| O=c1[nH]c(=O)n([C@H]2C[C@H](O)[C@@H](CO)O2)cc1F [2′-deoxy-5-fluorouridine] | 0.04 ± 0.25 | – | 0.76 ± 0.06 | > 100 µM | 0.73 ± 0.35 log10 | – | 0.23 ± 0.05 | – |
